# According to patent publication US20240199651A1, “ANTIBACTERIAL COMPOUNDS” (JANSSEN SCIENCES IRELAND UNLIMITED COMPANY, priority 2021, published 2024):
# Where two headings read alike, the source gives them in different places.
# What was measured:
# [1] = system: Mycobacterium tuberculosis strain EH4.0 expressing green-fluorescent protein (GFP); assay: microbe, parasite or virus in culture; type: cell-based; details: Test 1 (and/or Test 2), M. tuberculosis
# [2] = Mitochondrial toxicity (Glu/Gal) assay; type: cell-based; details: for Score: mitotoxicity score, Glu/Gal assay; for Δ IC50, glu/IC50, gal: ratio IC50 glu / IC50 gal
# From the text: The compounds of the invention/examples may have advantages associated with in vitro potency, kill kinetics (i.e. bactericidal effect) in vitro, PK properties, food effect, safety/toxicity (including liver toxicity, coagulation, 5-LO oxygenase), metabolic stability, Ames II negativity, MNT negativity, aqueous based solubility (and ability to formulate) and/or cardiovascular effect e.g. on animals (e.g. anesthetized guinea pig). Data that is generated/calculated may be obtained using standard methods/assays, for instance that are available in the literature or which may be performed by a supplier (e.g. Microsomal Stability Assay—Cyprotex, Mitochondrial toxicity (Glu/Gal) assay—Cyprotex, as well as literature CYP cocktail inhibition assays). GSH can be measured (reactive metabolites, glucuronidation) to observe if a dihydrodiol is observed by LCMS (fragmentation ions), which would correspond to a dihydroxylation on the core heterocycle.
# [3] = Chemical stability testing (LCMS); type: physicochemical; details: 30 µM
# Experimental: • Add 3 μl of a 10 mM DMSO stock solution to 1 ml of the following solvents in a 1.5 ml HPLC vial. • DMSO (reference solution) • H2O/Acetonitril 1/1 (assay solution) • 0.1N HCl/Acetonitril 1/1 (assay solution) • Mix well, […] LCMS • Compare the chromatograms of the two assay solutions with the reference solution and report the additional peaks as degradation peaks
# [4] = galactose medium (Glu/Gal mitotoxicity assay), read-out: IC50, gal
# [5] = glucose medium (Glu/Gal mitotoxicity assay), read-out: IC50, glu
compound,measurement,setting,value
CCc1nc2ncc(Cl)cn2c1C(=O)NCc1ccc(-c2nc3n(n2)CCN(S(=O)(=O)C(F)(F)F)C3)c(F)c1 [Compound 4],pIC50,[1],7.90
same,IC50,[2]; [4],> 100 µM
same,IC50,[2]; [5],> 100 µM
O=C(NCc1ccc(-c2nc3n(n2)CCN(S(=O)(=O)C(F)(F)F)C3)c(F)c1)c1c(C(F)(F)F)nc2ccccn12 [Compound 6],"chemical stability, % by LCMS",[3]; 48 h,100%
same,"chemical stability, % by LCMS","[3]; 48 h, pH 1.6",100%
same,Score,[2],[x]1
same,"Δ IC50, glu/IC50, gal",[2],0.66
same,IC50,"[2]; read-out: IC50, gal",134 µM
same,IC50,"[2]; read-out: IC50, glu",88.5 µM
CCc1nc2nc(C)c(Cl)cn2c1C(=O)NCc1ccc(-c2nc3n(n2)CCN(S(=O)(=O)C(F)(F)F)C3)cc1 [Compound 8],pIC50,[1],7.58
same,IC50,[2]; [4],41.7 µM
same,IC50,[2]; [5],51.2 µM
same,Score,[2],[x]1
same,"Δ IC50, glu/IC50, gal",[2],1.23
CCc1nc2cc(OC)c(Cl)cn2c1C(=O)NCc1ccc(-c2nc3n(n2)CCN(S(=O)(=O)C(F)(F)F)C3)c(F)c1 [Compound 10],"chemical stability, % by LCMS",[3]; 72 h,97.03%
same,"chemical stability, % by LCMS","[3]; 72 h, pH 1.6",100%
same,IC50,"[2]; read-out: IC50, gal",> 200 µM
same,IC50,"[2]; read-out: IC50, glu",> 200 µM
CCc1nc2nc(N)c(Cl)cn2c1C(=O)NCc1ccc(-c2nc3n(n2)CCN(S(=O)(=O)C(F)(F)F)C3)c(F)c1 [Compound 12],"chemical stability, % by LCMS",[3]; 72 h,96.14%
same,"chemical stability, % by LCMS","[3]; 72 h, pH 1.6",97.06%
CCc1nc2cc(NC)c(Cl)cn2c1C(=O)NCc1ccc(-c2nc3n(n2)CCN(S(=O)(=O)C(F)(F)F)C3)c(F)c1 [Compound 13],IC50,[1]; Mycobacterium tuberculosis,> 0.5 µM
same,Score,[2],[x]1
same,"Δ IC50, glu/IC50, gal",[2],1.25
same,IC50,"[2]; read-out: IC50, gal",23.5 µM
same,IC50,"[2]; read-out: IC50, glu",29.5 µM
CCc1nc2cc(N)c(Cl)cn2c1C(=O)NCc1ccc(-c2nc3n(n2)CCN(S(=O)(=O)C(F)(F)F)C3)c(F)c1 [Compound 14],"chemical stability, % by LCMS",[3]; 72 h,100%
same,"chemical stability, % by LCMS","[3]; 72 h, pH 1.6",100%
CCc1nc2ncc(C)cn2c1C(=O)NCc1ccc(-c2nn3c(c2OC)CN(S(=O)(=O)C(F)(F)F)CC3)cc1 [Compound 88],AC50,[1],0.00866 µM
CCc1nc2ncc(Cl)cn2c1C(=O)NCc1ccc(-c2cc3n(n2)CCN(S(=O)(=O)C(F)(F)F)C3)cc1 [Compound 91],Score,[2],[x]3
same,"Δ IC50, glu/IC50, gal",[2],>12.85
same,IC50,"[2]; read-out: IC50, gal",15.6 µM
same,IC50,"[2]; read-out: IC50, glu",> 200 µM
Cc1cnc2nc(C3CC3)c(C(=O)NCc3ccc(-c4cc5n(n4)CCN(S(=O)(=O)C(F)(F)F)C5)cc3)n2c1 [Compound 93],IC50,[2]; [4],> 200 µM
same,IC50,[2]; [5],> 200 µM
CCc1nc2ncc(C)cn2c1C(=O)NCc1cccc(Cc2cc3n(n2)CCN(S(=O)(=O)C(F)(F)F)C3)c1 [Compound 95],Score,[2],[x]1
same,"Δ IC50, glu/IC50, gal",[2],>1.7
same,IC50,"[2]; read-out: IC50, gal",117 µM
same,IC50,"[2]; read-out: IC50, glu",> 200 µM
CC(=O)N1CCn2nc(-c3ccc(CNC(=O)c4c(C5CC5)nc5ncc(C)cn45)cc3)cc2C1 [Compound 96],IC50,[2]; [4],> 200 µM
same,IC50,[2]; [5],> 200 µM
Cc1cnc2nc(C3CC3)c(C(=O)NCc3ccc(-c4nc5n(n4)CCN(S(=O)(=O)C(F)(F)F)C5)c(F)c3)n2c1 [Compound 97],IC50,[2]; [4],> 25 µM
same,IC50,[2]; [5],> 25 µM
Cc1cnc2nc(C3CC3)c(C(=O)NCc3ccc(-c4cc5n(n4)CCN(S(C)(=O)=O)C5)cc3)n2c1 [Compound 99],IC50,[2]; [4],> 200 µM
same,IC50,[2]; [5],> 200 µM
Cc1cnc2nc(C3CC3)c(C(=O)NCc3ccc(-c4cc5n(n4)CCN(C)C5)cc3)n2c1 [Compound 100],IC50,[2]; [4],> 200 µM
same,IC50,[2]; [5],> 200 µM
COCCN1CCn2nc(-c3ccc(CNC(=O)c4c(C5CC5)nc5ncc(C)cn45)cc3)cc2C1 [Compound 101],IC50,[2]; [4],> 200 µM
same,IC50,[2]; [5],> 200 µM
Cc1cnc2nc(C3CC3)c(C(=O)NCc3ccc(-c4nn5c(c4C)CN(S(=O)(=O)C(F)(F)F)CC5)cc3)n2c1 [Compound 102],Score,[2],[x]3
same,"Δ IC50, glu/IC50, gal",[2],>6.69
same,IC50,"[2]; read-out: IC50, gal",29.9 µM
same,IC50,"[2]; read-out: IC50, glu",> 200 µM
O=C(NCc1ccc(-c2nc3n(n2)CCN(S(=O)(=O)C(F)(F)F)C3)cc1)c1c(C2CC2)nc2ncc(Cl)cn12 [Compound 103],Score,[2],[x]0
same,"Δ IC50, glu/IC50, gal",[2],>1.3
same,IC50,"[2]; read-out: IC50, gal",38.6 µM
same,IC50,"[2]; read-out: IC50, glu",> 50 µM
Cc1cnc2nc(C3CC3)c(C(=O)NCc3ccc(-c4cc5n(n4)CCN(CC(F)(F)F)C5)cc3)n2c1 [Compound 107],Score,[2],[x]0
same,"Δ IC50, glu/IC50, gal",[2],>1.13
same,IC50,"[2]; read-out: IC50, gal",44.2 µM
same,IC50,"[2]; read-out: IC50, glu",> 50 µM
Cc1cnc2nc(C3CC3)c(C(=O)NCc3ccc(-c4cc5n(n4)CCN(S(=O)(=O)CC(C)C)C5)cc3)n2c1 [Compound 108],Score,[2],[x]0
same,"Δ IC50, glu/IC50, gal",[2],>1.29
same,IC50,"[2]; read-out: IC50, gal",38.6 µM
same,IC50,"[2]; read-out: IC50, glu",> 50 µM
COCCS(=O)(=O)N1CCn2nc(-c3ccc(CNC(=O)c4c(C5CC5)nc5ncc(C)cn45)cc3)cc2C1 [Compound 109],IC50,[2]; [4],> 50 µM
same,IC50,[2]; [5],> 50 µM
CCc1nc2ncc(C)cn2c1C(=O)NCc1ccc(-c2nc3n(n2)CCN(S(=O)(=O)C(F)(F)F)C3)cc1 [Compound 110],IC50,[2]; [4],> 100 µM
same,IC50,[2]; [5],> 100 µM
O=C(NCc1ccc(-c2cn3c(n2)CN(S(=O)(=O)C(F)(F)F)CC3)cc1)c1c(C(F)(F)F)nc2ccccn12 [Compound 115],"Δ IC50, glu/IC50, gal",[2],>3.08
same,IC50,"[2]; read-out: IC50, gal",64.8 µM
same,IC50,"[2]; read-out: IC50, glu",> 200 µM
O=C(NCc1ccc(-c2cn3c(n2)CN(S(=O)(=O)C(F)(F)F)CC3)cc1)c1c(C(F)F)nc2ccccn12 [Compound 116],Score,[2],[x]3
same,"Δ IC50, glu/IC50, gal",[2],>9.96
same,IC50,"[2]; read-out: IC50, gal",20.1 µM
same,IC50,"[2]; read-out: IC50, glu",> 200 µM
CCc1nc2ccc(Cl)cn2c1C(=O)NCc1ccc(-c2cn3c(n2)CN(S(=O)(=O)C(F)(F)F)CC3)cc1 [Compound 117],IC50,[2]; [4],> 50 µM
same,IC50,[2]; [5],> 50 µM
CCc1nc2ccc(Cl)cn2c1C(=O)NCc1ccc(-c2cc3n(n2)CCN(S(=O)(=O)C(F)(F)F)C3)cc1 [Compound 118],Score,[2],[x]1
same,"Δ IC50, glu/IC50, gal",[2],>1.57
same,IC50,"[2]; read-out: IC50, gal",127 µM
same,IC50,"[2]; read-out: IC50, glu",> 200 µM
O=C(NCc1ccc(-c2cc3n(n2)CCN(S(=O)(=O)C(F)(F)F)C3)cc1)c1c(C(F)(F)F)nc2ccccn12 [Compound 119],Score,[2],[x]1
same,"Δ IC50, glu/IC50, gal",[2],>1.54
same,IC50,"[2]; read-out: IC50, gal",130 µM
same,IC50,"[2]; read-out: IC50, glu",> 200 µM
O=C(NCc1ccc(-c2cc3n(n2)CCN(S(=O)(=O)C(F)(F)F)C3)cc1)c1c(C(F)F)nc2ccccn12 [Compound 120],Score,[2],[x]3
same,"Δ IC50, glu/IC50, gal",[2],>8.01
same,IC50,"[2]; read-out: IC50, gal",25 µM
same,IC50,"[2]; read-out: IC50, glu",> 200 µM
Cc1c(-c2ccc(CNC(=O)c3c(C(F)(F)F)nc4ccccn34)cc2)nn2c1CN(S(=O)(=O)C(F)(F)F)CC2 [Compound 121],"Δ IC50, glu/IC50, gal",[2],>4.31
same,IC50,"[2]; read-out: IC50, gal",46.4 µM
same,IC50,"[2]; read-out: IC50, glu",> 200 µM
O=C(NCc1ccc(-c2nc3n(n2)CCN(S(=O)(=O)C(F)(F)F)C3)cc1)c1c(C(F)(F)F)nc2ccccn12 [Compound 122],IC50,[2]; [4],> 100 µM
same,IC50,[2]; [5],> 100 µM
Cc1cnc2nc(C3CC3)c(C(=O)NCc3cnc(-c4cc5n(n4)CCN(S(=O)(=O)C(F)(F)F)C5)c(F)c3)n2c1 [Compound 125],IC50,[2]; [4],> 200 µM
same,IC50,[2]; [5],> 200 µM
CCc1nc2ncc(C)cn2c1C(=O)NCc1ccc(-c2cc3n(n2)CCN(S(=O)(=O)C(F)(F)F)C3)cn1 [Compound 126],IC50,[2]; [4],> 200 µM
same,IC50,[2]; [5],> 200 µM
Cc1cnc2nc(C3CC3)c(C(=O)NCc3ccc(-c4cc5n(n4)CCN(S(=O)(=O)C(F)(F)F)C5)nc3)n2c1 [Compound 128],IC50,[2]; [4],> 200 µM
same,IC50,[2]; [5],> 200 µM
Cc1cnc2nc(C3CC3)c(C(=O)NCc3cnc(-c4nc5n(n4)CCN(S(=O)(=O)C(F)(F)F)C5)c(F)c3)n2c1 [Compound 130],IC50,[2]; [4],> 200 µM
same,IC50,[2]; [5],> 200 µM
CCc1nc2ncc(C)cn2c1C(=O)NCc1cnc(-c2cc3n(n2)CCN(S(=O)(=O)C(F)(F)F)C3)nc1 [Compound 131],IC50,[2]; [4],> 100 µM
same,IC50,[2]; [5],> 100 µM
